# Values of other authors in patent publication US4878891A, “Method for eradicating infectious biological contaminants in body tissues” (Baylor Research Foundation, priority 1987, dated 1989).
# What was measured:
# [1] = tested on: cutaneous T-cell lymphoma; details: oral; blood fraction exposed to ultraviolet A
# tumor = details: injected; several types of tumor induced in mice
# malignant tumors = details: patients given large doses; ultraviolet light
smiles,measurement,setting,value
"Cc1cn([C@H]2C[C@H](N=[N+]=[N-])[C@@H](CO)O2)c(=O)[nH]c1=O [3-deoxy-3'-azidothymidine (AZT), 3-deoxy-3'-azidothymidine]",preventing the proliferation of tumor cells,tumor cells,totally ineffective
COc1c2occc2cc2ccc(=O)oc12 [8-methoxypsoralen],control of cutaneous T-cell lymphoma activity,[1],could be controlled
CC[C@]1(O)C[C@H]2CN(CCc3c([nH]c4ccccc34)[C@@](C(=O)OC)(c3cc4c(cc3OC)N(C=O)[C@H]3[C@@](O)(C(=O)OC)[C@H](OC(C)=O)[C@]5(CC)C=CCN6CC[C@]43[C@@H]65)C2)C1 [Vincristine],treatment of viral diseases,viral diseases,ineffective
CC1=C(CCC(=O)O)c2cc3[nH]c(cc4nc(cc5[nH]c(cc1n2)c(C)c5C(C)O)C(C)=C4C(C)O)c(C)c3CCC(=O)O (centres unmarked) [hematoporphyrin],localization in tumors,tumor,localized and fluoresced in several types of tumor
same,red fluorescence in malignant tumors,malignant tumors,red fluorescence
